PubChem BioAssay (NCI)
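All cell lines were grown in 96-well plates and treated with compound for 48 hours. GI50: concentration for 50% inhibition of growth. TGI is the concentration that stops growth completely.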

System: MDA-MB-435
Test: NCI tumour cell line growth inhibition, 48 h

Cc1ccc(S(=O)(=O)n2c3c(c4ccccc42)CCN2C[C@H]([C@H](C)Br)CC[C@@H]32)cc1 and C=CCn1c(=O)c(C(=O)Nc2nc(C34CC5CC(CC(C5)C3)C4)cs2)c(O)c2ccccc21 cannot be ordered by TGI: over 100 µM for the first, over 100 µM for the second.

First: C[n+]1c(/C=C/c2c(O)ccc3ccccc23)ccc2ccccc21
Second: CC(=NNC(=S)Nc1ccccc1)c1cccc(C(C)=NNC(=S)Nc2ccccc2)n1
The TGI of the first is lower: 12.6 µM for the first, over 100 µM for the second.

Compared with CC(C)c1cc2c(c(O)c1O)[C@@]1(C(=O)O)CCCC(C)(C)[C@@H]1CC2, CC(NC(=O)Cc1ccccc1)NC(=O)C(C)C(=O)Nc1ccccc1 (stereo not given) is higher in TGI: 34.5 µM for the first, over 100 µM for the second.

Going from COC1=CC(=O)c2c(c(-c3nc(C)cs3)cn2C)C1=O to CCCNc1ncnc2c1ncn2C, the TGI rises from 1.4 µM to over 100 µM.

CCOS(C)(=O)=O and CC(C)(C)[Si](C)(C)OCC1OC(n2ccc(=O)[nH]c2=O)C(O[Si](C)(C)C(C)(C)C)/C1=C/C#N (stereo not given) cannot be ordered by TGI: over 100 µM for the first, over 38.7 µM for the second.

Work on CC(C)SC(=S)Sc1c(Cl)c(Cl)nc(Cl)c1Cl yielded a TGI of 19.6 µM.

C[n+]1c(/C=C/c2c(O)ccc3ccccc23)ccc2ccccc21 was tested, and the GI50 was 5.84 µM.

System: OVCAR-8 ovarian
Test: NCI tumour cell line growth inhibition, 48 h

Cc1ccc(S(=O)(=O)n2c3c(c4ccccc42)CCN2C[C@H]([C@H](C)Br)CC[C@@H]32)cc1 and C=CCn1c(=O)c(C(=O)Nc2nc(C34CC5CC(CC(C5)C3)C4)cs2)c(O)c2ccccc21 cannot be ordered by TGI: over 100 µM for the first, over 100 µM for the second.

First: C[n+]1c(/C=C/c2c(O)ccc3ccccc23)ccc2ccccc21
Second: CC(=NNC(=S)Nc1ccccc1)c1cccc(C(C)=NNC(=S)Nc2ccccc2)n1
The TGI of the first is lower: 14.9 µM for the first, over 50.2 µM for the second.

Going from CC(C)c1cc2c(c(O)c1O)[C@@]1(C(=O)O)CCCC(C)(C)[C@@H]1CC2 to CC(NC(=O)Cc1ccccc1)NC(=O)C(C)C(=O)Nc1ccccc1 (stereo not given), the TGI rises from 30.1 µM to over 100 µM.

COC1=CC(=O)c2c(c(-c3nc(C)cs3)cn2C)C1=O and CCCNc1ncnc2c1ncn2C cannot be ordered by TGI: over 49.6 µM for the first, over 100 µM for the second.

CCOS(C)(=O)=O and CC(C)(C)[Si](C)(C)OCC1OC(n2ccc(=O)[nH]c2=O)C(O[Si](C)(C)C(C)(C)C)/C1=C/C#N (stereo not given) cannot be ordered by TGI: over 100 µM for the first, over 100 µM for the second.

CC(C)SC(=S)Sc1c(Cl)c(Cl)nc(Cl)c1Cl gave a TGI of 10.5 µM.

Compound C[n+]1c(/C=C/c2c(O)ccc3ccccc23)ccc2ccccc21 has a GI50 of 5.2 µM.

System: HOP-92 NSCLC
Test: NCI tumour cell line growth inhibition, 48 h

Going from Cc1ccc(S(=O)(=O)n2c3c(c4ccccc42)CCN2C[C@H]([C@H](C)Br)CC[C@@H]32)cc1 to C=CCn1c(=O)c(C(=O)Nc2nc(C34CC5CC(CC(C5)C3)C4)cs2)c(O)c2ccccc21, the TGI falls from over 100 µM to 84.4 µM.

Compared with C[n+]1c(/C=C/c2c(O)ccc3ccccc23)ccc2ccccc21, CC(=NNC(=S)Nc1ccccc1)c1cccc(C(C)=NNC(=S)Nc2ccccc2)n1 is higher in TGI: 6.17 µM for the first, over 50.2 µM for the second.

Compared with CC(C)c1cc2c(c(O)c1O)[C@@]1(C(=O)O)CCCC(C)(C)[C@@H]1CC2, CC(NC(=O)Cc1ccccc1)NC(=O)C(C)C(=O)Nc1ccccc1 (stereo not given) is higher in TGI: 20.8 µM for the first, over 100 µM for the second.

Going from COC1=CC(=O)c2c(c(-c3nc(C)cs3)cn2C)C1=O to CCCNc1ncnc2c1ncn2C, the TGI rises from 43.2 µM to over 100 µM.

First: CCOS(C)(=O)=O
Second: CC(C)(C)[Si](C)(C)OCC1OC(n2ccc(=O)[nH]c2=O)C(O[Si](C)(C)C(C)(C)C)/C1=C/C#N (stereo not given)
The TGI of the first is lower: 30.7 µM for the first, over 68.8 µM for the second.

Compound CC(C)SC(=S)Sc1c(Cl)c(Cl)nc(Cl)c1Cl has a TGI of 21.4 µM.

With C[n+]1c(/C=C/c2c(O)ccc3ccccc23)ccc2ccccc21 the GI50 was 0.854 µM.

System: OVCAR-4 ovarian
Test: NCI tumour cell line growth inhibition, 48 h

Cc1ccc(S(=O)(=O)n2c3c(c4ccccc42)CCN2C[C@H]([C@H](C)Br)CC[C@@H]32)cc1 and C=CCn1c(=O)c(C(=O)Nc2nc(C34CC5CC(CC(C5)C3)C4)cs2)c(O)c2ccccc21 cannot be ordered by TGI: over 100 µM for the first, over 100 µM for the second.

Compared with C[n+]1c(/C=C/c2c(O)ccc3ccccc23)ccc2ccccc21, CC(=NNC(=S)Nc1ccccc1)c1cccc(C(C)=NNC(=S)Nc2ccccc2)n1 is higher in TGI: 10.5 µM for the first, over 100 µM for the second.

CC(C)c1cc2c(c(O)c1O)[C@@]1(C(=O)O)CCCC(C)(C)[C@@H]1CC2 and CC(NC(=O)Cc1ccccc1)NC(=O)C(C)C(=O)Nc1ccccc1 (stereo not given) cannot be ordered by TGI: over 100 µM for the first, over 100 µM for the second.

Going from COC1=CC(=O)c2c(c(-c3nc(C)cs3)cn2C)C1=O to CCCNc1ncnc2c1ncn2C, the TGI rises from 68.7 µM to over 100 µM.

CCOS(C)(=O)=O and CC(C)(C)[Si](C)(C)OCC1OC(n2ccc(=O)[nH]c2=O)C(O[Si](C)(C)C(C)(C)C)/C1=C/C#N (stereo not given) cannot be ordered by TGI: over 100 µM for the first, over 100 µM for the second.

CC(C)SC(=S)Sc1c(Cl)c(Cl)nc(Cl)c1Cl showed a TGI of 28.4 µM.

C[n+]1c(/C=C/c2c(O)ccc3ccccc23)ccc2ccccc21 was tested, and the GI50 was 3.39 µM.

System: COLO 205 colon
Test: NCI tumour cell line growth inhibition, 48 h

Cc1ccc(S(=O)(=O)n2c3c(c4ccccc42)CCN2C[C@H]([C@H](C)Br)CC[C@@H]32)cc1 and C=CCn1c(=O)c(C(=O)Nc2nc(C34CC5CC(CC(C5)C3)C4)cs2)c(O)c2ccccc21 cannot be ordered by TGI: over 100 µM for the first, over 100 µM for the second.

First: C[n+]1c(/C=C/c2c(O)ccc3ccccc23)ccc2ccccc21
Second: CC(=NNC(=S)Nc1ccccc1)c1cccc(C(C)=NNC(=S)Nc2ccccc2)n1
The TGI of the first is lower: 10.8 µM for the first, over 100 µM for the second.

CC(C)c1cc2c(c(O)c1O)[C@@]1(C(=O)O)CCCC(C)(C)[C@@H]1CC2 and CC(NC(=O)Cc1ccccc1)NC(=O)C(C)C(=O)Nc1ccccc1 (stereo not given) cannot be ordered by TGI: over 100 µM for the first, over 100 µM for the second.

Going from COC1=CC(=O)c2c(c(-c3nc(C)cs3)cn2C)C1=O to CCCNc1ncnc2c1ncn2C, the TGI rises from 37.6 µM to over 100 µM.

Compared with CCOS(C)(=O)=O, CC(C)(C)[Si](C)(C)OCC1OC(n2ccc(=O)[nH]c2=O)C(O[Si](C)(C)C(C)(C)C)/C1=C/C#N (stereo not given) is lower in TGI: over 100 µM for the first, 9.83 µM for the second.

Work on CC(C)SC(=S)Sc1c(Cl)c(Cl)nc(Cl)c1Cl yielded a TGI of 24.7 µM.

Work on C[n+]1c(/C=C/c2c(O)ccc3ccccc23)ccc2ccccc21 yielded a GI50 of 4.07 µM.
